Assay: UV-Vis absorption and fluorescence spectroscopy (spectral properties in aqueous media / PBS buffer)
Type: physicochemical
Design: Brightness: unit not given here
Details: aqueous media; for FWHMabs (nm): absorption band width; for λabs (nm): absorption maximum; for FWHem (nm): emission band width; for λem (nm): emission maximum; for ε (M^-1 cm-1): extinction coefficient from Beer's Law plots; for ϕ: relative quantum yield, TMR and SiTMR as reference
Protocol: UV-Vis and fluorescence spectra were collected on a SpectraMax M5 spectrometer with a Microplate reader (Molecular Devices, Sunnyvale, CA). All absorbance spectra were reference corrected. Extinction coefficient was calculated from Beer’s Law plots of absorbance versus concentration. Relative quantum yields are reported using TMR and SiTMR as reference.

Compound | Brightness | Stokes Shift (nm) | FWHMabs (nm) | λabs (nm) | FWHem (nm) | λem (nm) | ε (M^-1 cm-1) | ϕ
Cc1cc(C(=O)NCCOCCOCCCCCCCl)ccc1-c1c2cc/c(=[N+](/C)CCCS(=O)(=O)[O-])cc-2oc2cc(N(C)C)ccc12 [OF550HALO, (E)((9-(4-((2-(2-((6-chlorohexyl)oxy)ethoxy)ethyl)carbamoyl)-2-methylphenyl)-6-(dimethylamino)-3H-xanthenylidene)(methyl)ammonio)propane-1-sulfonate] | 53 | 25 | 34 | 556 | 42 | 581 | 97,200 M^-1 cm-1 | 0.55
CN(C)c1ccc2c(c1)[Si](C)(C)C1=CC(=[N+](C)C)C=CC1=C2c1cc(C(=O)O)ccc1C(=O)[O-] [SiRCOOH, 4-carboxy-2-(7-(dimethylamino)-3-(dimethyliminio)-5,5-dimethyl-3,5-dihydrodibenzo[b,e]silin-10-yl)benzoate] | 29 | 22 | 39 | 645 | 42 | 667 | 64,700 M^-1 cm-1 | 0.45
CN(C)c1ccc2c(-c3cc(C(=O)NCc4ccc(COc5nc(N)nc6[nH]cnc56)cc4)ccc3C(=O)[O-])c3ccc(=[N+](C)C)cc-3oc2c1 [TMRSNAP] | 11 | 24 | 58 | 553 | 45 | 577 | 27,700 M^-1 cm-1 | 0.41
CN(C)c1ccc2c(c1)[Si](C)(C)C1=CC(=[N+](C)C)C=CC1=C2c1cc(C(=O)NCCOCCOCCCCCCCl)ccc1C(=O)[O-] [SiRHALO] | 3 | 18 | 45 | 646 | 45 | 664 | 11,100 M^-1 cm-1 | 0.25
CN(C)c1ccc2c(-c3ccccc3C(=O)[O-])c3ccc(=[N+](C)C)cc-3oc2c1 [TMR] | 33 | 25 | 38 | 549 | 42 | 574 | 60,900 M^-1 cm-1 | 0.54
C#Cc1cccc(Nc2ncnc3ccc(NC(=O)CCNC(=O)c4ccc(C(=O)[O-])c(C5=C6C=CC(=[N+](C)C)C=C6[Si](C)(C)c6cc(N(C)C)ccc65)c4)cc23)c1 [SiRErl(T)] | 5 | 22 | 42 | 656 | 53 | 678 | 34,800 M^-1 cm-1 | 0.13
Cc1cc(C(=O)[O-])ccc1C1=C2C=C/C(=[N+](/C)CCCS(=O)(=O)O)C=C2[Si](C)(C)c2cc(N(C)C)ccc21 [OF650COOH, (E)-3-((10-(4-carboxy-2-methylphenyl)-7-(dimethylamino)-5,5-dimethyldibenzo[b,e]silin-3(5H)-ylidene)(methyl)ammonio)propane-1-sulfonate] | 82 | 22 | 34 | 650 | 42 | 672 | 200,600 M^-1 cm-1 | 0.41
C#Cc1cccc(Nc2ncnc3ccc(NC(=O)CCNC(=O)c4ccc(C5=C6C=C/C(=[N+](/C)CCCS(=O)(=O)[O-])C=C6[Si](C)(C)c6cc(N(C)C)ccc65)c(C)c4)cc23)c1 [OF650Erl(T)] | 7 | 17 | 38 | 656 | 41 | 673 | 43,400 M^-1 cm-1 | 0.16
C#Cc1cccc(Nc2ncnc3ccc(NC(=O)CCNC(=O)c4ccc(-c5c6cc/c(=[N+](/C)CCCS(=O)(=O)[O-])cc-6oc6cc(N(C)C)ccc56)c(C)c4)cc23)c1 [OF550Erl(T), (E)((6-(dimethylamino)-9-(4-((3-((4-((3-ethynylphenyl)amino)quinazolin-6-yl)amino)oxopropyl)carbamoyl)-2-methylphenyl)-3H-xanthenylidene)(methyl)ammonio)propane-1-sulfonate] | 7 | 17 | 80 | 566 | 47 | 583 | 24,500 M^-1 cm-1 | 0.28
CN(C)c1ccc2c(-c3cc(C(=O)O)ccc3C(=O)[O-])c3ccc(=[N+](C)C)cc-3oc2c1 [TMRCOOH, 4-carboxy-2-(6-(dimethylamino)-3-(dimethyliminio)-3H-xanthen-9-yl)benzoate] | 49 | 26 | 42 | 550 | 44 | 576 | 83,800 M^-1 cm-1 | 0.58
CN(C)c1ccc2c(c1)[Si](C)(C)C1=CC(=[N+](C)C)C=CC1=C2c1cc(C(=O)NCCCn2cc(-c3cccc(Nc4ncnc5ccccc45)c3)nn2)ccc1C(=O)[O-] [SiRErl(UnT)] | 5 | 16 | 38 | 654 | 43 | 670 | 24,100 M^-1 cm-1 | 0.19
C#Cc1cccc(Nc2ncnc3ccc(NC(=O)CCNC(=O)c4ccc(C(=O)[O-])c(-c5c6ccc(=[N+](C)C)cc-6oc6cc(N(C)C)ccc56)c4)cc23)c1 [TMRErl(T)] | 21 | 24 | 39 | 563 | 42 | 587 | 33,100 M^-1 cm-1 | 0.62
CN(C)c1ccc2c(-c3cc(C(=O)NCCCn4cc(-c5cccc(Nc6ncnc7ccccc67)c5)nn4)ccc3C(=O)[O-])c3ccc(=[N+](C)C)cc-3oc2c1 [TMRErl(UnT)] | 7 | 26 | 44 | 559 | 43 | 585 | 18,700 M^-1 cm-1 | 0.37
Cc1cc(C(=O)NCCCn2cc(-c3cccc(Nc4ncnc5ccccc45)c3)nn2)ccc1-c1c2cc/c(=[N+](/C)CCCS(=O)(=O)[O-])cc-2oc2cc(N(C)C)ccc12 [OF550Erl(UnT), (E)((6-(dimethylamino)-9-(2-methyl-4-((3-(4-(3-(quinazolin-4-ylamino)phenyl)-1H-1,2,3-triazol-1-yl)propyl)carbamoyl)phenyl)-3H-xanthenylidene)(methyl)ammonio)propane-1-sulfonate] | 35 | 25 | 35 | 560 | 44 | 585 | 50,200 M^-1 cm-1 | 0.69

Reference: patent US20230287217A1, “Zwitterionic Cell-Permeant and Water-Soluble Rhodamine Dyes for Quantitative Imaging Applications” (OREGON HEALTH & SCIENCE UNIVERSITY, priority 2020, published 2023)
